The record followed here is patent publication US7687643B2, “Process for preparing 3,3-dimethylindolines” (Amgen Inc., priority 2001, dated 2010).

The test system of this test is Human Umbilical Vein Endothelial cells (VEGF-stimulated). As to the kind of experiment: HUVEC proliferation assay, VEGF-stimulated. It counts as cell-based. The note with it: VEGF 50 ng/mL, 72 h, CyQuant, read-out: inhibited VEGF-stimulated HUVEC proliferation at a level. The protocol:
Human Umbilical Vein Endothelial cells are purchased from Clonetics, Inc., as cryopreserved cells harvested from a pool of donors. These cells, at passage 1, are thawed and expanded in EBM-2 complete medium, until passage 2 or 3. The cells are trypsinized, washed in DMEM+10% FBS+antibiotics, and spun at 1000 rpm for 10 min. Prior to centrifugation of the cells, a small amount is collected for a cell count. After centrifugation, the medium is discarded, and the cells are resuspended in the appropriate volume of DMEM+10% FBS+antibiotics to achieve a concentration of 3×10^5 cells/mL. Another cell count is performed to confirm the cell concentration. The cells are diluted to 3×10^4 cells/mL in DMEM+10% FBS+antibiotics, and 100 μL of cells are added to a 96-well plate. The cells are incubated at 37° C. for 22 h.
Prior to the completion of the incubation period, compound dilutions are prepared. Five-point, five-fold serial dilutions are prepared in DMSO, at concentrations 400-fold greater than the final concentrations desired. 2.5 μL of each compound dilution are diluted further in a total of 1 mL DMEM+10% FBS+antibiotics (400× dilution). Medium containing 0.25% DMSO is also prepared for the 0 μM compound sample. At the 22-hour timepoint, the medium is removed from the cells, and 100 μL of each compound dilution is added. The cells are incubated at 37° C. for 2-3 h.
During the compound pre-incubation period, the growth factors are diluted to the appropriate concentrations. Solutions of DMEM+10% FBS+antibiotics, containing either VEGF or bFGF at the following concentrations: 50, 10, 2, 0.4, 0.08, and 0 ng/mL are prepared. For the compound-treated cells, solutions of VEGF at 550 ng/mL or bFGF at 220 ng/mL for 50 ng/mL or 20 ng/mL final concentrations, respectively, are prepared since 10 μL of each will be added to the cells (110 μL final volume). At the appropriate time after adding the compounds, the growth factors are added. VEGF is added to one set of plates, while bFGF is added to another set of plates. For the growth factor control curves, the media on wells B4-G6 of plates 1 and 2 are replaced with media containing VEGF or bFGF at the varying concentrations (50-0 ng/mL). The cells are incubated at 37° C. for an additional 72 h.
At the completion of the 72 h incubation period, the medium is removed, and the cells are washed twice with PBS. After the second wash with PBS, the plates are tapped gently to remove excess PBS, and the cells are placed at −70° C. for at least 30 min. The cells are thawed and analyzed using the CyQuant fluorescent dye (Molecular Probes C-7026), following the manufacturer's recommendations. The plates are read on a Victor/Wallac 1420 workstation at 485 nm/530 nm (excitation/emission). Raw data are collected and analyzed using a 4-parameter fit equation in XLFit. IC50 values are then determined.
With `CNc1nccc(CNc2ncccc2C(=O)Nc2ccc3c(n2)NC(=O)CC3(C)C)n1` [Example 1135, N-(5,5-Dimethyl-7-oxo-5,6,7,8-tetrahydro-[1,8]naphthyridin-2-yl)-2-[(2-methylamino-pyrimidin-4-ylmethyl)-amino]-nicotinamide], the IC50 is less than 50 nM. On to `CNc1cc(CNc2ncccc2C(=O)Nc2ccc3c(c2)NCCC3(C)C)ccn1` [Example 1194], for which the IC50 is less than 50 nM. As for `O=C(Nc1cc(NC(=O)c2cccnc2NCc2ccncn2)cc(C(F)(F)F)c1)O[C@H]1CCOC1` [Example 1086, (3S)-tetrahydro-3-furanyl 3-(((2-((4-pyrimidinylmethyl)amino)-3-pyridinyl)carbonyl)amino)-5-(trifluoromethyl)phenylcarbamate], the IC50 was less than 50 nM. In the case of `CC(C)(C)c1ccc(NC(=O)c2ccc(F)nc2NCc2ccncc2)cc1` [Example 154, N-[4-(tert-Butyl)phenyl]{6-fluoro-2-[(4-pyridylmethyl)amino](3-pyridyl)}carboxamide], the IC50 is less than 50 nM. On to `CNc1nccc(CNc2ncccc2C(=O)Nc2ccc(C(F)(F)F)c(OCCNS(C)(=O)=O)c2)n1` [Example 1033, 2-(((2-(Methylamino)-4-pyrirnidinyl)methyl)amino)-N-(3-((2-((methylsulfonyl)amino)ethyl)oxy)-4-(trifluoromethyl)phenyl)-3-pyridinecarboxamide], for which the IC50 is less than 50 nM.

Turning to `CC1(C)CNc2cc(NC(=O)c3cccnc3NCc3ccncn3)ccc21` [Example 1029, N-(3,3-Dimethyl-2,3-dihydro-1H-indol-6-yl)-2-((4-pyrimidinylmethyl)amino)-3-pyridinecarboxamide], the IC50 is less than 50 nM. Regarding `CC(C)c1ccc(NC(=O)c2cc(F)cnc2NCc2ccncc2)cc1` [Example 67, {5-Fluoro-2-[(4-pyridylmethyl)amino](3-pyridyl)}-N-[4-(isopropyl)phenyl]carboxamide], the IC50 was less than 50 nM. As for `CNc1cc(CNc2ncccc2C(=O)Nc2cc(Cl)cc(NC(=O)CN(C)C)c2)ccn1` [Example 1149, N-[3-Chloro-5-(2-dimethylamino-acetylamino)-phenyl]-2-[(2-methylamino-pyridin-4-ylmethyl)-amino]-nicotinamide], the IC50 is less than 50 nM.

Regarding `COC(=O)C(C)(C)c1ccc(NC(=O)c2cccnc2NCc2ccncc2)cc1` [Example 985, 2-Methyl-2-[4-({2-[(pyridin-4-ylmethyl)-amino]-pyridine-3-carbonyl}-amino)-phenyl]-propionic acid methyl ester], the IC50 was less than 50 nM. In the case of `CNc1nccc(CNc2ncccc2C(=O)Nc2ccc3c(c2)N(S(C)(=O)=O)CC3(C)C)n1` [Example 1060, N-(3,3-dimethyl-1-(methylsulfonyl)-2,3-dihydro-1H-indol-6-yl)-2-(((2-(methylamino)-4-pyrimidinyl)methyl)amino)-3-pyridinecarboxamide], the IC50 is less than 50 nM. The same measure for `CNc1nccc(CNc2ncccc2C(=O)Nc2ccc(C(C)(C)C3CCN(C)CC3)cc2)n1` [Example 1043, 2-(((2-(methylamino)-4-pyrimidinyl)methyl)amino)-N-(4-(1-methyl-1-(1-methyl-4-piperidinyl)ethyl)phenyl)-3-pyridinecarboxamide]: less than 50 nM.

With `O=C(Nc1cc(O)cc(C(F)(F)F)c1)c1cccnc1NCc1ccncc1` [Example 978, N-(3-Hydroxy-5-trifluoromethyl-phenyl)-2-[(pyridin-4-ylmethyl)-amino]-nicotinamide], the IC50 is less than 50 nM. For the molecule `CS(=O)(=O)NCCOc1cc(NC(=O)c2cccnc2NCc2ccncc2)cc(C(F)(F)F)c1` [Example 1090, N-(3-((2-((methylsulfonyl)amino)ethyl)oxy)-5-(trifluoromethyl)phenyl)-2-((4-pyridinylmethyl)amino)-3-pyridinecarboxamide], the IC50 was less than 50 nM. The same measure for `CC(C)c1ccc(NC(=O)c2cccnc2NCc2ccnc3ccccc23)cc1` [Example 167, N-[4-(Isopropyl)phenyl]{2-[(4-quinolylmethyl)amino](3-pyridyl)}carboxamide]: less than 50 nM; for `O=C(Nc1ccc(Oc2ccccc2)cc1)c1cccnc1NCc1ccncc1` [Example 158, N-(4-Phenoxyphenyl){2-[(4-pyridylmethyl)amino](3-pyridyl)}carboxamide]: less than 50 nM.

Regarding `CN1CCC(COc2cc(NC(=O)c3cccnc3NCc3ccncc3)ccc2C(F)(F)C(F)(F)F)CC1` [Example 954, N-[3-(1-Methyl-piperidin-4-ylmethoxy)-4-pentafluoroethyl-phenyl]-2-[(pyridin-4-ylmethyl)-amino]-nicotinamide], the IC50 was less than 50 nM.

Regarding `CC1(C)CNc2cc(NC(=O)c3cccnc3NCc3ccnc4ccccc34)ccc21` [Example 1023, N-(3,3-Dimethyl-2,3-dihydro-1H-indol-6-yl)-2-((4-quinolinylmethyl)amino)-3-pyridinecarboxamide], the IC50 is less than 50 nM. Regarding `CN(C)CC(=O)N1CC(C)(C)c2ccc(NC(=O)c3cccnc3NCc3ccnc4ccccc34)cc21` [Example 1030, N-(1-(N,N-Dimethylglycyl)-3,3-dimethyl-2,3-dihydro-1H-indol-6-yl)-2-((4-quinolinylmethyl)amino)-3-pyridinecarboxamide], the IC50 was less than 50 nM. Turning to `CC1(C)Oc2ccc(NC(=O)c3cccnc3NCc3ccncc3)cc2NC1=O` [Example 944, N-(2,2-Dimethyl-3-oxo-3,4-dihydro-2H-benzo[1,4]oxazin-6-yl)-2-[(pyridin-4-ylmethyl)-amino]-nicotinamide], the IC50 was less than 50 nM. For `CS(=O)(=O)NCCOc1cc(NC(=O)c2cccnc2NCc2ccncc2)ccc1C(F)(F)F` [Example 1032, N-(3-((2-((Methylsulfonyl)amino)ethyl)oxy)-4-(trifluoromethyl)phenyl)-2-((4-pyridinylmethyl)amino)-3-pyridinecarboxamide], the IC50 is less than 50 nM.

As to `O=C(Nc1ccc(Cl)cc1)c1ncccc1NCc1ccc2ncccc2c1` [Example 7, N-(4-Chlorophenyl){3-[(6-quinolylmethyl)amino](2-pyridyl)}carboxamide], the IC50 is less than 50 nM. Turning to `CC(=O)N1CC(C)(C)Oc2ccc(NC(=O)c3cccnc3NCc3ccncc3)cc21` [Example 943, N-(4-Acetyl-2,2-dimethyl-3,4-dihydro-2H-benzo[1,4]oxazin-6-yl)-2-[(pyridin-4-ylmethyl)-amino]-nicotinamide], the IC50 is less than 50 nM. For `CC1(C)CN(S(C)(=O)=O)c2cc(NC(=O)c3cccnc3NCc3ccncc3)ccc21` [Example 1068, N-(3,3-dimethyl-1-(methylsulfonyl)-2,3-dihydro-1H-indol-6-yl)-2-((4-pyridinylmethyl)amino)-3-pyridinecarboxamide], the IC50 is less than 50 nM.

Turning to `CC(C)c1ccc(NC(=O)c2ccc(F)nc2NCc2ccncc2)cc1` [Example 155, {6-Fluoro-2-[(4-pyridylmethyl)amino](3-pyridyl)}-N-[4-(isopropyl)phenyl]carboxamide], the IC50 is less than 50 nM. Take `CC(C)(C)OC(=O)N1CCC[C@@H]1COc1cc(NC(=O)c2cccnc2NCc2ccncc2)cc(C(F)(F)F)c1` [Example 916, (R) N-[3-(1-Boc-pyrrolidin-2-ylmethoxy)-5-trifluoromethyl-phenyl]-2-[(pyridin-4-ylmethyl)-amino]-nicotinamide]: the IC50 is less than 50 nM. Turning to `O=C(Nc1ccc(C(F)(F)F)cc1)c1cccnc1NCc1ccncc1` [Example 165, {2-[(4-Pyridylmethyl)amino](3-pyridyl)}-N-[4-(trifluoromethyl)phenyl]carboxamide], the IC50 was less than 50 nM. In the case of `CC1(C)CCNc2cc(NC(=O)c3cccnc3NCc3ccncc3)ccc21` [Example 1109, N-(4,4-Dimethyl-1,2,3,4-tetrahydro-quinolin-7-yl)-2-[(pyridin-4-ylmethyl)-amino]-nicotinamide], the IC50 was less than 50 nM.

As for `COc1nccc(CNc2ncccc2C(=O)Nc2ccc3c(c2)N(C(C)=O)CC3(C)C)n1` [Example 1046, N-(1-acetyl-3,3-dimethyl-2,3-dihydro-1H-indol-6-yl)-2-(((2-(methyloxy)-4-pyrimidinyl)methyl)amino)-3-pyridinecarboxamide], the IC50 is less than 50 nM.
